Assay: clinical use of intranasal oxytocin formulations to treat tinnitus (patient reports, Tinnitus Handicap Inventory)
Assay type: in vivo, human
Description: In an aspect, this disclosure provides a method for treating tinnitus. The method comprises administering intranasally to an individual a composition comprising or consisting essentially of oxytocin, wherein such administration results in treatment of tinnitus. The effectiveness of treatment of tinnitus may be monitored by quantifying tinnitus, such as by self-evaluation using clinically accepted techniques. An example is the Tinnitus Handicap Inventory (“THI”), a validated and published measurement technique. (Newman et al., Arch Otolaryngol Head Neck Surg, 1996, February 122(2), 143-8). In an embodiment, the improvement in an individual using THI may comprise an improvement of at least 10%. In various embodiments, the improvement may comprise from 10-100%, such as at least 20, 30, 40, 50, 60, 70, 80, 90, 95, or 99%.
This example describes clinical use of the present formulations to treat tinnitus. […] The formulation contained oxytocin, magnesium chloride, citric acid, and sodium citrate in sterile water. […] The dose was then increased to 45 IU (3 sprays of 15 IU) 4 times daily. […] A thickener was then added to the formulation keeping the oxytocin amount the same. […] Their score on the Tinnitus Handicap Inventory reduced from a pretreatment score of 96 (meaning a catastrophic level) to a current score of 14 (meaning mild or no tinnitus). The patient has remained improved over 1 year since initiating therapy. Their current dose is 22.5 IU in each nostril 4 times daily. Since their tinnitus occurs in distinct cycles, at times when tinnitus severity is loudest, they increase the dose to 5 times daily for 2 days. […] Their current handicap inventory is 8.
The dose was increased to 45 IU 4 times daily resulting in a decrease in tinnitus volume by approximately 30%.
In another patient, who developed constant tinnitus after a neck injury one year ago, a dose of 45 IU (22.5 IU in each nostril) 4 times daily was used for 30 days and is still ongoing. It has provided about 15% improvement.
In another patient with constant tinnitus a dose of 30 IU 4 times daily has been started and treatment is ongoing.

[1] = fifth patient, constant tinnitus, 30 IU 4 times daily, after 2 weeks
[2] = first patient, 22.5 IU in each nostril 4 times daily, 5 times daily for 2 days when loudest, past 3 months

CC[C@H](C)[C@@H]1NC(=O)[C@H](Cc2ccc(O)cc2)NC(=O)[C@@H](N)CSSC[C@@H](C(=O)N2CCC[C@H]2C(=O)N[C@@H](CC(C)C)C(=O)NCC(N)=O)NC(=O)[C@H](CC(N)=O)NC(=O)[C@H](CCC(N)=O)NC1=O [oxytocin, Cys-Tyr-Ile-Gln-Asn-Cys-Pro-Leu-Gly (SEQ ID NO:1)]
time without noticing the tinnitus [1]: several hours per day without noticing the tinnitus | tinnitus intensity [1]: tinnitus intensity has lowered | time patient has remained improved since initiating therapy (first patient): over 1 year | longest time without tinnitus [2]: ≤ 10 days | tinnitus severity [2]: reduced tinnitus severity | current handicap inventory (Tinnitus Handicap Inventory) (first patient, 22.5 IU in each nostril 4 times daily, 5 times daily for 2 days when loudest, pretreatment 96): 8 | score on the Tinnitus Handicap Inventory (first patient, formulation with thickener, pretreatment score 96 (catastrophic level), 14 means mild or no tinnitus): 14 | tinnitus free period (first patient, thickener added, same oxytocin amount (45 IU 4 times daily)): several days of tinnitus free period | improvement (fourth patient, constant tinnitus after neck injury, 45 IU (22.5 IU in each nostril) 4 times daily for 30 days): about 15% | tinnitus volume (fourth patient, dose raised on occasions to 5 times daily): diminished tinnitus volume | relief of tinnitus (general statement, lower amounts of oxytocin (under 20 IU per day)): did not result in any significant relief | time patient remains improved (second patient, 45 IU twice daily): more than a year | benefit (third patient, tinnitus caused by a drug, 30 IU twice daily): without benefit | decrease in tinnitus volume (third patient, tinnitus caused by a drug, 45 IU 4 times daily): approximately 30%
